The values below come from patent US4833257A, “Compositions of matter and methods of using same” (Arizona Board of Regents, priority 1986, dated 1989).

In assay [1] the test system is P388 lymphocytic leukemia (PS cell line). As to the kind of experiment: P388 lymphocytic leukemia (PS) cell line growth inhibition. It counts as cell-based, murine. The conditions noted are these: Mus musculus. From the text: (§1) The isolation and purification methods chosen can be monitored at each step by performing in-vitro and/or in-vivo antitumor tests as described by R. I. Geran, N. H. Greenberg, M. M. MacDonald, A. M. Schumacher and B. S. Abbot in Cancer Chemother. Rep. Part 3, Vol 3: 1-103 (1972); and by Schmidt, J. M.; Pettit, G. R. in Experientia 1978, 34: 659-660. Such tests include the determination of the concentration of active material required to inhibit the growth of tumor cells in culture, (e.g. the concentration required to inhibit growth by 50 percent or the E.D.50) and of the dose of active material required to prolong the life of mice bearing transplanted tumors. The chemical structures of the bryostatins of the present invention are shown below and the physical characteristics are reported in the pertinent examples. The structures are: [drawing 2]

Assay [2] deals with P388 lymphocytic leukemia and other NCI test systems. Put plainly: cell growth inhibitory and antineoplastic activity against P388 lymphocytic leukemia and other NCI test systems. On the set-up: species or system murine.
Excerpt: as §1

Assay [3] deals with P388 lymphocytic leukemia (PS system). As to the kind of experiment: in vivo antitumor test in mice bearing P388 lymphocytic leukemia (PS system), life extension / T/C.
Excerpt: as §1

Setting [4] is: P388 lymphocytic leukemia cell line, read-out: PS cell line growth inhibition ED50.

Converted amounts (≈) assume the structure as drawn. Where two headings read alike, the source gives them in different places.

For `CCC/C=C/C=C/C(=O)O[C@H]1/C(=C/C(=O)OC)C[C@H]2C[C@H]([C@@H](C)O)OC(=O)C[C@H](O)C[C@@H]3C[C@H](OC(=O)CCC)C(C)(C)[C@](O)(C[C@@H]4C/C(=C/C(=O)OC)C[C@H](/C=C/C(C)(C)[C@]1(O)O2)O4)O3` [Bryostatin 12], the IC50 in assay [1] (setting [4]) came out at 14 ng/mL (≈ 15 nM). Besides, the “cell growth inhibitory and antineoplastic activity” value in assay [2] was “substantial cell growth inhibitory and antineoplastic activity”. Further, the life extension in assay [3] (at 30-50 μg/kg) was 47-68%.
`CCCC(=O)O[C@H]1/C(=C/C(=O)OC)C[C@H]2C[C@H]([C@@H](C)O)OC(=O)C[C@H](O)C[C@@H]3C[C@H](OC(C)=O)C(C)(C)[C@](O)(C[C@@H]4C/C(=C/C(=O)OC)C[C@H](/C=C/C(C)(C)[C@]1(O)O2)O4)O3` [Bryostatin 9]: the IC50 in assay [1] (P388 lymphocytic leukemia, growth inhibition, read-out: PS ED50) was 1.2 ng/mL (≈ 1.41 nM). In addition, in assay [2], the “cell growth inhibitory and antineoplastic activity” value was “substantial cell growth inhibitory and antineoplastic activity”. Moreover, the life extension in assay [3] (at 80 μg/kg) stood at 40%.
For the compound `CCCC(=O)O[C@H]1C[C@H]2C[C@@H](O)CC(=O)O[C@@H]([C@@H](C)O)C[C@@H]3C/C(=C\C(=O)OC)C[C@@](O)(O3)C(C)(C)/C=C/[C@H]3C/C(=C\C(=O)OC)C[C@@H](C[C@](O)(O2)C1(C)C)O3` [Bryostatin 13], the IC50 in assay [1] (setting [4]) turned out to be 5.4 ng/mL (≈ 6.79 nM). In addition, the “cell growth inhibitory and antineoplastic activity” value in assay [2] is “substantial cell growth inhibitory and antineoplastic activity”.
Consider `COC(=O)/C=C1/C[C@H]2C[C@]3(O)O[C@H](C[C@@H](O)CC(=O)O[C@@H]([C@@H](C)O)C[C@@H]4C/C(=C\C(=O)OC)C[C@@](O)(O4)C(C)(C)/C=C/[C@@H](C1)O2)C[C@H](OC(C)=O)C3(C)C` [Bryostatin 11], for which the IC50 in assay [1] (setting [4]) worked out at 0.018 ng/mL (≈ 0.0235 nM). In assay [2], the “cell growth inhibitory and antineoplastic activity” value is “substantial cell growth inhibitory and antineoplastic activity”. Besides, the “in vivo growth inhibition” value in assay [3] (at 92.5 μg/kg) worked out at 64%.
